US8076285B2, “Lysobactin amides” (Aicuris GmbH & Co. KG, priority 2006, dated 2011)
In brackets after ≈: the same amount, converted by molar mass. *1 amine or outer side, *2 acyl side, *3 side chain or, on linkers, in order; H or OH if unused. Where a SMILES comes first, the peptide text is derived from it. Bridges are numbered along the chain shown (N, C = ends). [ ]: non-standard residue; d: D form. Phe(3R-OH) = O=C([C@@H](N[*:1])[C@H](O[*:3])c1ccccc1)[*:2]; Asn(3S-OH) = NC(=O)[C@@H](O)[C@H](N)C(=O)O; Leu(3R-OH) = CC(C)[C@@H](O)[C@H](N)C(=O)O; aThr = C[C@H](O)[C@H](N)C(=O)O

Key:
[1] = test system: Enterococcus faecalis 27159; type: cell-based; details: 27159
Description: (§1) Determination of the Minimum Inhibitory Concentration (MIC):
(§2) The MIC is determined in the liquid dilution test in accordance with the NCCLS guidelines. Overnight cultures of Staphylococcus aureus 133, Enterococcus faecalis 27159, E. faecium 4147 and Streptococcus pneumoniae G9a are incubated with the described test substances in a 1:2 dilution series. The MIC determination is carried out with a cell count of 10^5 microbes per ml in Isosensitest medium (Difco, Irvine/USA), with the exception of S. pneumoniae which is tested in BHI broth (Difco, Irvine/USA) with 10% bovine serum with a cell count of 10^6 microbes per ml. The cultures are incubated at 37° C. for 18-24 hours, S. pneumoniae in the presence of 10% CO2.
(§3) The MIC is defined as the lowest concentration of each substance at which no visible bacterial growth occurs any longer. The MIC values are reported in μg/ml.

[2] = test system: Staphylococcus aureus 133; type: cell-based; details: 133
Description: as §1, §2, §3

[3] = test system: Streptococcus pneumoniae G9a; type: cell-based; details: G9a
Description: as §1, §2, §3

[4] = Chemical stability in alkaline aqueous solution (buffer pH 7.8, HPLC); type: physicochemical; details: aqueous neutral to basic medium (pH>7)
Description: Determination of the Chemical Stability in Stability Alkaline Aqueous Solution:
0.3 mg of the test substance are dissolved in a mixture of 0.25 ml of acetonitrile, 0.25 ml of DMSO and 0.5 ml of buffer of pH 7.8 (consisting of 111 mg (1 mmol) of calcium chloride, 7.91 g (100 mmol) of ammonium bicarbonate, 100 ml of acetonitrile ad 1000 ml) and left to stand at room temperature. A 5 μl aliquot is taken from the solution once an hour and analyzed by HPLC (method 57). The concentration of the test compound at time 0 h, indicated by the UV absorption (1E), is set equal to 100%, and the decrease over time is observed. At the same time, the increase in the ring-opened degradation product is observed.

CC[C@H](C)[C@@H]1NC(=O)[C@@H](CCCNC(=N)N)NC(=O)[C@H](CC(C)C)NC(=O)[C@H]([C@H](O)C(C)C)NC(=O)[C@@H](NC(=O)[C@H](CC(C)C)NC(=O)[C@H](N)CC(C)C)[C@@H](c2ccccc2)OC(=O)[C@H](CO)NC(=O)[C@H]([C@H](O)C(N)=O)NC(=O)CNC(=O)[C@H]([C@H](C)O)NC1=O [Lysobactin, lysobactin] (H-[dL]L[Phe(3R-OH)][Leu(3R-OH)]L[dR]I[aThr]G[Asn(3S-OH)]S; ester 3-C (inferred); N-terminus assumed)
MIC E. faecalis ICB 27159 [1]: 0.5 µg/mL (≈ 0.392 µM)
MIC S. aureus 133 [2]: 0.5 µg/mL (≈ 0.392 µM)
MIC S. pneumoniae G9a [3]: 0.063 µg/mL (≈ 0.0494 µM)
hydrolysis (opening of the lactone) in aqueous medium [4]: hydrolyzed in an aqueous neutral to basic medium (pH>7) within days
